Assay results published in patent US6797462B1, “Cell-based assay for immunodeficiency virus infectivity and sensitivity” (UAB Research Foundation, priority 1998, dated 2004).

System: HIV YU2
Test: Protease inhibitor sensitivity: J53tat cells infected with HIV YU2 with drug, supernatant used to infect J53BL cells
Type: cell-based, HIV-1
Details: for Number of colony formed in the presence of protease Inhibitor Indinavir: YU2, J53tat then J53BL
Protocol: The J53tat cell line is used to produce virus and thereby enable viral testing of drug candidates that affect various stages of the virus life cycle. Thus, viral drug resistance mutations in early stage targets such as reverse transcriptase (RT), integrase (IN) and env; and late stage targets such as protease and Gag are analyzed by the methods of the present invention. The J53tat cells are infected with HIV YU2 (MOI of either 0.2 or 0.04), and protease inhibitor (indinavir) is added to the cultures at various concentrations. Forty hours after infection the culture supernatant is collected and used to infect the J53BL cell line in the presence of the same drug concentrations.

CC(C)(C)NC(=O)[C@@H]1CN(Cc2cccnc2)CCN1C[C@@H](O)C[C@@H](Cc1ccccc1)C(=O)N[C@H]1c2ccccc2C[C@H]1O [indinavir]
Number of colony formed in the presence of protease Inhibitor Indinavir (0.04 M.O.I, 0.008 MM indinavir): 105
Number of colony formed in the presence of protease Inhibitor Indinavir (0.04 M.O.I, 0.2 MM indinavir): 2
Number of colony formed in the presence of protease Inhibitor Indinavir (0.04 M.O.I, 1.0 MM indinavir): 0
Number of colony formed in the presence of protease Inhibitor Indinavir (0.04 M.O.I): 2
Number of colony formed in the presence of protease Inhibitor Indinavir (0.2 M.O.I, 0.008 MM indinavir): >1000
Number of colony formed in the presence of protease Inhibitor Indinavir (0.2 M.O.I, 0.2 MM indinavir): 99
Number of colony formed in the presence of protease Inhibitor Indinavir (0.2 M.O.I, 1.0 MM indinavir): 0
Number of colony formed in the presence of protease Inhibitor Indinavir (0.2 M.O.I): 343
Sensitivity of YU2 to protease inhibitor (increasing concentrations causing greater inhibition): sensitive
